Results on 28 compounds are retold here after patent publication US9415055B2, “Cyclic amines” (H. Lundbeck A/S, priority 2012, dated 2016).

A word on the IC50: it is the concentration needed to halve the response being measured. A higher IC50 goes with lower potency.

P2X7 receptor, sequence (Q99572 whole entry): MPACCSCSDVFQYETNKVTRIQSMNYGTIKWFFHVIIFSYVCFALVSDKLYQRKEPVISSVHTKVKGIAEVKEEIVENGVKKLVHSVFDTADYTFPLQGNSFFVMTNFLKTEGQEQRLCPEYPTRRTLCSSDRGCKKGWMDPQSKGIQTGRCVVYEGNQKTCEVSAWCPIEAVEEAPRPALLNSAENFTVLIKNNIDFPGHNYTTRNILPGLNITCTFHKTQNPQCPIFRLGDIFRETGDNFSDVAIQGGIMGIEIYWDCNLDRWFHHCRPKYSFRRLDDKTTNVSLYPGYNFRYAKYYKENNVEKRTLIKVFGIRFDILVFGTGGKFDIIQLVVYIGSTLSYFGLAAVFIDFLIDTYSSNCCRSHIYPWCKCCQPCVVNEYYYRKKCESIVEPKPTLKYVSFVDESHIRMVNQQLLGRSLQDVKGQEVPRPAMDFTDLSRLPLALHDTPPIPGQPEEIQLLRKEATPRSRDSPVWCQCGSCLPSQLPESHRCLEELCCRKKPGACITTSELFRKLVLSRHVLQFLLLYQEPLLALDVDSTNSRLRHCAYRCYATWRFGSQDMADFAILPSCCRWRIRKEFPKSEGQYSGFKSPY

In the assay the target is P2X7 receptor (Homo sapiens (Human), UniProt Q99572). As to the kind of experiment: P2X7 FLIPR assay: antagonism of BzATP response in 293 HEK cells stably expressing P2X7 receptor. Type of assay: cell-based. As to conditions: FLIPR fluorescence (Fluo-4), agonist BzATP, 293 HEK cells stably transfected with P2X7 receptor. A digest of the protocol:
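Antagonist IC50 derived from FLIPR Tetra Fluo-4 calcium signal evoked by BzATP. Compound pre-incubation was 30 min at room temperature on P2X7-expressing HEK293 cells, seeded 24 h before in low-serum medium and dye-loaded 30 min at 37 °C then 30 min at RT.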
Compound `Cc1ncc(C(CNC(=O)c2cccc(Cl)c2Cl)N2CCC(C)C2)cn1` (stereo not shown) [2,3-dichloro-N-(2-(2-methylpyrimidin-5-yl)-2-(3-methylpyrrolidin-1-yl)ethyl)benzamide] came in with a 50% inhibitory concentration (IC50) of 1 µM.

On to `O=C(NCC(c1cnc(C(F)(F)F)nc1)N1CCC(F)CC1)c1ccccc1Cl` (single isomer, unassigned; (+)) [(+)2-chloro-N-[2-(4-fluoro-1-piperidyl)-2-[2-(trifluoromethy] [(+)2-chloro-N-(2-(4-fluoropiperidin-1-yl)-2-(2-(trifluoromethyl)pyrimidin-5-yl)ethyl)benzamide], for which the IC50 was 0.015 µM.

With `Cc1ncc(C(CNC(=O)c2c(F)cccc2F)N2CCOCC2)cn1` (stereo not shown) [2,6-difluoro-N-(2-(2-methylpyrimidin-5-yl)-2-morpholinoethyl)benzamide], the IC50 came to 1.1 µM.

`O=C(NCC(c1cnc(C(F)F)nc1)N1CCOCC1)c1ccccc1Cl` (single isomer, unassigned; (+)) [(+)2-chloro-N-[2-[2-(difluoromethyl)pyrimidin-5-yl]-2-morpho] [(+)2-chloro-N-(2-(2-(difluoromethyl)pyrimidin-5-yl)-2-morpholinoethyl)benzamide] had an IC50 of 0.06 µM. Against the preceding compound, the IC50 is about 18-fold lower.

With `COc1ccc(C(=O)NCC(c2cnc(C(F)(F)F)nc2)N2CCC(F)(F)CC2)c(Cl)c1OC` (single isomer, unassigned; (-)) [(−)2-chloro-N-[2-(4,4-difluoro-1-piperidyl)-2-[2-(trifluorom] [(−)2-chloro-3,4-dimethoxy-N-(2-(4,4-difluoropiperidin-1-yl)-2-(2-(trifluoromethyl)pyrimidin-5-yl)ethyl)benzamide], the IC50 turned out to be 0.0078 µM.

For `O=C(NCC(c1cnc(C(F)(F)F)nc1)N1CCC(F)(F)CC1)c1c(F)cc(Cl)cc1Cl` (single isomer, unassigned; (+)) [(+)2,4-dichloro-N-[2-(4,4-difluoro-1-piperidyl)-2-[2-(triflu] [(+)2,4-dichloro-6-fluoro-N-(2-(4,4-difluoropiperidin-1-yl)-2-(2-(trifluoromethyl)pyrimidin-5-yl)ethyl)benzamide], the IC50 amounted to 0.0047 µM.

Consider `COc1ccc(C(CNC(=O)c2cccc(Cl)c2Cl)N2CCC(F)(F)CC2)cc1` (stereo not shown) [2,3-dichloro-N-[2-(4,4-difluoro-1-piperidyl)-2-(4-methoxyphenyl)ethyl]benzamide], for which the IC50 worked out at 0.0006 µM.

Regarding `Cc1ncc(C(CNC(=O)c2cccc(OC(F)(F)F)c2Cl)N2CCC(F)(F)CC2)cn1` (single isomer, unassigned; (+)) [(+)2-chloro-N-[2-(4,4-difluoro-1-piperidyl)-2-(2-methylpyrim] [(+)2-chloro-N-(2-(4,4-difluoropiperidin-1-yl)-2-(2-methylpyrimidin-5-yl)ethyl)-3-(trifluoromethoxy)benzamide], the IC50 was found to be 0.021 µM.

The compound `O=C(NCC(c1ccc(C(F)(F)F)nc1)N1CCOCC1)c1c(F)cccc1F` (single isomer, unassigned; (+)) [(+)2,6-difluoro-N-[2-morpholino-2-[6-(trifluoromethyl)-3-pyr] [(+)2,6-Difluoro-N-[2-morpholino-2-[6-(trifluoromethyl)-3-pyridyl]ethyl]benzamide] registered an IC50 of 0.029 µM. This IC50 and that of the compound before are within 1.5-fold of each other.

As to `Cc1cccc(C(=O)NCC(c2ccncc2)N2CCOCC2)c1C` (stereo not shown) [2,3-Dimethyl-N-(2-morpholin-4-yl-2-pyridin-4-yl-ethyl)-benzamide], the half-maximal inhibitory concentration (IC50) came to 1.4 µM. This IC50 is about 48-fold higher than that of the compound before.

As for `CN(C)c1ncc(C(CNC(=O)c2cccc(Cl)c2Cl)N2CCC(F)(F)CC2)cn1` (stereo not shown) [2,3-dichloro-N-(2-(4,4-difluoropiperidin-1-yl)-2-(2-(dimethylamino)pyrimidin-5-yl)ethyl)benzamide], the IC50 stood at 0.0066 µM.

`O=C(NCC(c1cnc(C(F)(F)F)nc1)N1CCC(F)(F)CC1)c1cccc(F)c1Cl` (single isomer, unassigned; (+)) [(+)2-chloro-N-[2-(4,4-difluoro-1-piperidyl)-2-[2-(trifluorom] [(+)2-chloro-N-(2-(4,4-difluoropiperidin-1-yl)-2-(2-(trifluoromethyl)pyrimidin-5-yl)ethyl)-3-fluorobenzamide] yielded an IC50 of 0.0017 µM.

Regarding `CCc1ncc(C(CNC(=O)c2c(F)cccc2Cl)N2CCC(F)(F)CC2)cn1` (single isomer, unassigned; (-)) [(−)2-chloro-N-[2-(4,4-difluoro-1-piperidyl)-2-(2-ethylpyrimi] [(−)2-chloro-6-fluoro-N-(2-(4,4-difluoropiperidin-1-yl)-2-(2-ethylpyrimidin-5-yl)ethyl)benzamide], the IC50 was 0.036 µM. Against the preceding compound, the IC50 is about 21-fold higher.

`Cn1cc(C(CNC(=O)c2cc(F)cc(Cl)c2Cl)N2CCC(F)(F)CC2)cn1` (single isomer, unassigned; (+)) [(+)2,3-dichloro-N-[2-(4,4-difluoro-1-piperidyl)-2-(1-methylp] [(+)2,3-dichloro-5-fluoro-N-(2-(4,4-difluoropiperidin-1-yl)-2-(1-methyl-1H-pyrazol-4-yl)ethyl)benzamide]: the IC50 came out at 0.034 µM. The IC50 values of the last two compounds are within 1.5-fold of each other.

`Cc1ncc(C(CNC(=O)c2cccc(OC(F)F)c2Cl)N2CCC(F)(F)CC2)cn1` (single isomer, unassigned; (+)) [(+)2-chloro-3-(difluoromethoxy)-N-[2-(4,4-difluoro-1-piperid] [(+)2-chloro-3-(difluoromethoxy)-N-(2-(4,4-difluoropiperidin-1-yl)-2-(2-methylpyrimidin-5-yl)ethyl)benzamide] returned an IC50 of 0.007 µM.

Turning to `COc1ccccc1C(=O)NCC(c1ccc(C(F)(F)F)nc1)N1CCOCC1` (single isomer, unassigned; (-)) [(−)2-methoxy-N-[2-morpholino-2-[6-(trifluoromethyl)-3-pyridy] [(−)2-Methoxy-N-[2-morpholin-4-yl-2-(6-trifluoromethyl-pyridin-3-yl)-ethyl]-benzamide], the IC50 is 0.021 µM. This IC50 lies about 3-fold higher than the previous one.

Regarding `COc1ccc(C(CNC(=O)c2cccc(C)c2C)N2CCCCC2)cc1` (stereo not shown) [N-[2-(4-Methoxy-phenyl)-2-piperidin-1-yl-ethyl]-2,3-dimethyl-benzamide], the IC50 is 0.42 µM. Against the preceding compound, the IC50 is about 20-fold higher.

`Cc1ncc(C(CNC(=O)c2c(Cl)cccc2Cl)N2CCC(F)CC2)cn1` (single isomer, unassigned; (-)) [(−)2,6-dichloro-N-[2-(4-fluoro-1-piperidyl)-2-(2-methylpyrim] [(−)2,6-dichloro-N-(2-(4-fluoropiperidin-1-yl)-2-(2-methylpyrimidin-5-yl)ethyl)benzamide] had an IC50 of 0.053 µM. This IC50 lies about 7.9-fold lower than the previous one.

In the case of `Cc1ccc(Cl)c(C(=O)NCC(c2ccncc2)N2CCOCC2)c1` (stereo not shown) [2-Chloro-5-methyl-N-(2-morpholin-4-yl-2-pyridin-4-yl-ethyl)-benzamide], the IC50 was found to be 2.7 µM.

In the case of `Cc1ncc(C(CNC(=O)c2cc(F)cc(Cl)c2Cl)N2CCC(F)(F)CC2)cn1` (single isomer, unassigned; (+)) [(+)2,3-dichloro-N-[2-(4,4-difluoro-1-piperidyl)-2-(2-methylp] [(+)2,3-dichloro-5-fluoro-N-(2-(4,4-difluoropiperidin-1-yl)-2-(2-methylpyrimidin-5-yl)ethyl)benzamide], the IC50 is 0.0051 µM.

For `Cc1ccc(C(CNC(=O)c2cccc(F)c2Cl)N2CCC(F)(F)CC2)cn1` (single isomer, unassigned; (+)) [(+)2-chloro-N-[2-(4,4-difluoro-1-piperidyl)-2-(6-methyl-3-py] [(+)2-chloro-3-fluoro-N-(2-(4,4-difluoropiperidin-1-yl)-2-(2-methylpyridin-5-yl)ethyl)benzamide], the IC50 worked out at 0.033 µM.

As for `COc1cccc(C(=O)NCC(c2ccc(C(F)F)nc2)N2CCC(F)(F)CC2)c1Cl` (single isomer, unassigned; (-)) [(−)2-chloro-N-[2-[6-(difluoromethyl)-3-pyridyl]-2-(4,4-diflu] [(−)2-chloro-3-methoxy-N-(2-(2-(difluoromethyl)pyridin-5-yl)-2-(4,4-difluoropiperidin-1-yl)ethyl)benzamide], the IC50 worked out at 0.0019 µM.

Compound `Cc1ccccc1C(=O)NCC(c1ccc(Cl)cc1)N1CCC(F)(F)CC1` (stereo not shown) [N-[2-(4-Chloro-phenyl)-2-(4,4-difluoro-piperidin-1-yl)-ethyl]-2-methyl-benzamide] showed an IC50 of 0.002 µM.

Consider `CS(=O)(=O)c1ccc(Cl)c(C(=O)NCC(c2ccc(C(F)(F)F)nc2)N2CCOCC2)c1` (single isomer, unassigned; (+)) [(+)2-chloro-5-methylsulfonyl-N-[2-morpholino-2-[6-(trifluoro] [(+)2-chloro-5-(methylsulfonyl)-N-(2-morpholino-2-(6-(trifluoromethyl)pyridin-3-yl)ethyl)benzamide], for which the IC50 came to 0.071 µM.

In turn, `O=C(NCC(c1cnc(C(F)(F)F)nc1)N1CCOCC1)c1ccccc1F` (single isomer, unassigned; (-)) [(−)2-Fluoro-N-[2-morpholino-2-[2-(trifluoromethyl)pyrimidin-5-yl]ethyl]benzamide] registered an IC50 of 0.044 µM.

`O=C(NCC(c1ccc(C(F)F)nc1)N1CCC(F)(F)CC1)c1ccccc1Cl` (single isomer, unassigned; (+)) [(+)2-chloro-N-[2-[6-(difluoromethyl)-3-pyridyl]-2-(4,4-diflu] [(+)2-chloro-N-(2-(2-(difluoromethyl)pyridin-5-yl)-2-(4,4-difluoropiperidin-1-yl)ethyl)benzamide]: the IC50 is 0.009 µM. Compared with the last compound, the IC50 is about 4.9-fold lower.

Turning to `COc1cccc(C(=O)NCC(c2ccc(C(F)F)nc2)N2CCC(F)(F)CC2)c1Cl` (single isomer, unassigned; (+)) [(+)2-chloro-N-[2-[6-(difluoromethyl)-3-pyridyl]-2-(4,4-diflu] [(+)2-chloro-3-methoxy-N-(2-(2-(difluoromethyl)pyridin-5-yl)-2-(4,4-difluoropiperidin-1-yl)ethyl)benzamide], the IC50 stood at 0.0023 µM. This IC50 lies about 3.9-fold lower than the previous one.

Take `O=C(NCC(c1cnc(C(F)(F)F)nc1)N1CCOCC1)c1ccccc1Cl` (single isomer, unassigned; (-)) [(−)2-chloro-N-[2-morpholino-2-[2-(trifluoromethyl)pyrimidin-] [(−)2-Chloro-N-[2-morpholino-2-[2-(trifluoromethyl)pyrimidin-5-yl]ethyl]benzamide]: the IC50 came out at 0.015 µM.
